Marks after values point to notes of the source that are not given here.
Columns and labels:
[1] = system: PhiX174; assay: PhiX174 reduction in plasma with riboflavin, UV-illuminated flow-through flow cells; conditions: for pathogen reduction (log reduction of PhiX174): plasma + riboflavin, irradiance 4.5 mW/cm2
Description: The goal of this study is to obtain insight into the correlation between flow rate, channel thickness and pathogen reduction. The flow cells in this study have a relatively thicker channel and different flow configurations.
The flow cell mounts in a fixture (e.g., flow cell holder) which maintains channel thickness by applying pressure from both the top and bottom. The fixture houses eight illumination lamps driven at 800 mA with four on top and four on bottom producing an irradiance of 4.5 mW/cm2. Product can be flowed through the flow-cell, which is mounted adjacent to the light source, and then samples are taken on the back end.
The increased channel thickness results in decreased fluidic impedance requiring the use of a peristaltic pump to control flow rate instead of by gravity. The pump is calibrated prior to use to ensure flow rate accuracy.
1.5.5. Submit one sample tube for each sample for viral titer and save the other two samples for later analysis.
Below are the pathogen reduction results. In Table 6, cells with bold text indicate a sample that is within the limit of detection and cells with an asterisk indicate a sample that has six or less PhiX174 colonies at a one log dilution and is outside the limit of detection. Cells with underlined text indicate a sample is technically outside the limit of detection but has PhiX174 colonies allowing for the inferred calculation of pathogen reduction. Each cell also has dwell time in seconds and predicted dose. The lower predicted dose value takes into account the transmissivity of the plasma and flow cell. The higher predicted dose assumes that all light incident on the flow cell is absorbed by the plasma.

[2] = system: whole blood
[3] = system: PhiX174; assay: PhiX174 reduction in whole blood with riboflavin, UV-illuminated flow-through flow cells
Description: This study is designed to obtain insight into the correlation between flow rate, channel thickness and pathogen reduction of whole blood. The flow cells in this study have thin channels and different flow configurations. Thin channels are used because whole blood is less transmissive than plasma.
The flow cell mounts in a fixture (e.g. a flow cell holder) which maintains channel thickness by applying pressure from both the top and bottom. The fixture houses eight illumination lamps driven at 800 mA with four on top and four on bottom producing an irradiance of 4.5 mW/cm^2. Product can be flowed through the flow-cell, which is mounted adjacent to the light source, and then samples can be taken on the back end.
A peristaltic pump to control flow rate is used with the pump will located after the flow cell so that negative pressure is applied to the flow cell by the pump instead of positive pressure. The pump is calibrated prior to use to ensure flow rate accuracy.
Two flow cell configurations being tested may be referred to as “8p” and “4s×2p”. The 8p configuration has all the channels in parallel; therefore the fluid crosses one channel before exiting the flow cell. The 4s×2p configuration requires the fluid to cross four channels in series before exiting the flow cell. […]

Cc1cc2nc3c(=O)[nH]c(=O)nc-3n(C[C@H](O)[C@H](O)[C@H](O)CO)c2cc1C [riboflavin]
pathogen reduction (log reduction of PhiX174) ([1]; flow cell A, gap 3/1000" (0.0762 mm), flow rate 20 ml/min, dwell 2.9 sec): (~3.4 logs)* | pathogen reduction (log reduction of PhiX174) ([1]; flow cell A, gap 3/1000" (0.0762 mm), flow rate 40 ml/min, dwell 1.5 sec): (2.8 logs)* | pathogen reduction (log reduction of PhiX174) ([1]; flow cell B, gap 5/1000" (0.127 mm), flow rate 20 ml/min, dwell 4.9 sec): (~3.6 logs)* | pathogen reduction (log reduction of PhiX174) ([1]; flow cell B, gap 5/1000" (0.127 mm), flow rate 40 ml/min, dwell 2.43 sec): (2.6 logs)* | pathogen reduction (log reduction of PhiX174) ([1]; flow cell C, gap 12/1000" (0.305 mm), flow rate 40 ml/min, dwell 5.8 sec): (~3.9 logs)* | pathogen reduction (log reduction of PhiX174) ([1]; flow cell C, gap 12/1000" (0.305 mm), flow rate 80 ml/min, dwell 2.9 sec): (2.5 logs)* | pathogen reduction (log reduction of PhiX174) ([1]; flow cell D, gap 20/1000" (0.508 mm), flow rate 80 ml/min, dwell 4.7 sec): (2.9 logs)* | pathogen reduction, in words ([1]; plasma and riboflavin, all flow cells A-D): adequate pathogen reduction | hemolysis, difference from hold control [2]: ≤ 0.06 % hemolysis | pathogen reduction, in words [3]: within the acceptable pathogen reduction range
